Results published in patent publication US11692227B2, “Method for screening for skin whitening agent by using SDF1 promoter region” (AJOU UNIVERSITY INDUSTRY-ACADEMIC COOPERATION FOUNDATION, priority 2018, dated 2023).

Tested on: SDF1 promoter
Assay: Screening of pigment regulators using SDF1 promoter (pGF1 reporter fibroblast cell line, Luciferase assay)
Format: cell-based
Conditions: fibroblasts infected with SDF1 promoter pGF1 vector virus; 1 ug TPA; 1 ug and 10 ug retinoic acid; 24 hours after treatment
Text: In order to express the SDF1 promoter gene, the SDF1 promoter gene was inserted into pGF1-vector to construct the SDF1 promoter GFP vector. In order to produce the virus into which the constructed vector was inserted, a virus production system of lentivirus was used. PVSV-G (SystemBiosciences, USA) encoding the required structural protein, the pGF1 vector into which the SDF1 promoter gene was inserted, and pGag-pol were simultaneously co-transfected into HEK-293TN cells by a liposome method. After 6 hours, the medium was replaced with a new medium, cultured for 48 hours, and the medium containing the virus was harvested, and the harvested virus was used for fibroblasts infection. As for the infected fibroblasts, only cells infected by Puromycin were selected for the experiment.
In order to confirm the expression of the prepared SDF1 promoter, Luciferase assay, an experiment that can confirm the level of GFP, was conducted to observe the expression level.
Cells were cultured in 12 well plates in an amount of 1×10^3, and after 24 hours, 1 ug of TPA, 10 ng and 100 ng of EGF, and 1 ug and 10 ug of retinoic acid were treated, respectively. 24 hours after treatment with the drug, the activity of GFP was measured through Luciferase assay.

## CCCCCCCCCCCCCC(=O)O[C@@H]1[C@@H](C)[C@@]2(O)[C@@H](C=C(CO)C[C@]3(O)C(=O)C(C)=C[C@@H]23)[C@@H]2C(C)(C)[C@]12OC(C)=O [TPA]
  SDF1 promoter activity (activity of GFP measured through Luciferase assay): decreased
